In patent US20240148821A1, “PHARMACEUTICAL USE OF CYCLIC PEPTIDE COMPOUND” (CHUGAI SEIYAKU KABUSHIKI KAISHA, priority 2021, published 2024):
Numbered stars: 1 amine (or outer) side, 2 acyl side, 3 side chain; on linkers, the order of the positions; unused ones are H or OH. Bridge positions count the residues as written; N and C are the ends. Square brackets hold non-standard residues; d marks the D form. Peptide text beside a SMILES is read from it. * marks the point of attachment. hPhe(3,5-F2-4-CF3) = N[C@@H](CCc1cc(F)c(C(F)(F)F)c(F)c1)C(=O)O; hPhe(3-Cl-4-CF3) = N[C@@H](CCc1ccc(C(F)(F)F)c(Cl)c1)C(=O)O; hPhe(3-F,4-CF3) = N[C@@H](CCc1ccc(C(F)(F)F)c(F)c1)C(=O)O; NEtPhe(4-CF3) = CCN[C@@H](Cc1ccc(C(F)(F)F)cc1)C(=O)O; NMePhe(4-CF3) = CN[C@@H](Cc1ccc(C(F)(F)F)cc1)C(=O)O; hPhe(4-CF3) = N[C@@H](CCc1ccc(C(F)(F)F)cc1)C(=O)O; X20 = Cc1cncc(C[C@@H](C(=O)[*:2])N(C)[*:1])c1; NEtPhe(4-Me) = CCN[C@@H](Cc1ccc(C)cc1)C(=O)O; NMePhe(4-Cl) = CN[C@@H](Cc1ccc(Cl)cc1)C(=O)O; NMePhe(4-Me) = CN[C@@H](Cc1ccc(C)cc1)C(=O)O; NMeMet(O2) = CN[C@@H](CCS(C)(=O)=O)C(=O)O; NMedβ3hAla = C[C@H](CC(=O)[*:2])N(C)[*:1]; NMeAla(cPent) = CN[C@@H](CC1CCCC1)C(=O)O; NMeGly(cPent) = CN[C@H](C(=O)O)C1CCCC1; Pro(4,4-F2) = O=C(O)[C@@H]1CC(F)(F)CN1; dβ3hPip = O=C(C[C@H]1CCCCN1[*:1])[*:2]; NMehPhe = CN[C@@H](CCc1ccccc1)C(=O)O; NMeCha = CN[C@@H](CC1CCCCC1)C(=O)O; NMehLeu = CN[C@@H](CCC(C)C)C(=O)O; Hyp = O=C(O)[C@@H]1C[C@@H](O)CN1; NMeChg = CN[C@H](C(=O)O)C1CCCCC1; NMeI = CC[C@H](C)[C@H](NC)C(=O)O; NMeD = CN[C@@H](CC(=O)O)C(=O)O; NMeL = CN[C@@H](CC(C)C)C(=O)O; NMeV = CN[C@H](C(=O)O)C(C)C; d(β3hA) = C[C@@H](N)CC(=O)O; Azetidin(1-yl) = C1CN(*)C1; NMeA = CN[C@@H](C)C(=O)O; NMeAib = CNC(C)(C)C(=O)O; Nle = CCCC[C@H](N)C(=O)O; Nphe = O=C(O)CNCc1ccccc1; Piperidide = C1CCN(*)CC1; Pyrrolidide = C1CCN(*)C1; Ac5c = NC1(C(=O)O)CCCC1; Aze = O=C(O)[C@@H]1CCN1; Alloc = C=CCOC(=O)*; Sar = CNCC(=O)O

Experiments:
[1] = molecular target: protein-protein interaction between Kras and SOS1 (biotin-tagged human Kras loaded with GDP, His-tagged human SOS1) (Homo sapiens (Human), UniProt P01116, G12D); experiment: Protein-protein interaction inhibition between Kras and SOS1 (KrasG12D-SOS PPI) using AlphaScreen; type: biochemical; conditions: AlphaScreen; biotin-tagged human Kras loaded with GDP, His-tagged human SOS1; read-out: KRAS G12D-SOS PPI IC50;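 further: kras produced in E. coli, Ni-coupled donor beads and streptavidin acceptor beads, excitation 680 nm with emission detected at 520–620 nm via singlet oxygen transfer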
[2] = tested on: Human pancreatic cancer cell line AsPC-1 (G12D mutation Kras); experiment: AsPC-1 cell growth inhibition (AsPC-1 CGI); type: cell-based; conditions: read-out: AsPC-1 cell growth inhibition, 50% growth inhibitory concentration (IC50 value); 96 hours, CellTiter-Glo, values classified in ranges

Row | Structure (SMILES) | IC50 [1] [nM] | IC50 [2] [nM]
1 | C=CCOC(=O)NCCCC[C@@H]1NC(=O)[C@H](CCc2ccc(C(F)(F)F)cc2)NC(=O)CN(C)C(=O)[C@H](Cc2ccc(Cl)cc2)N(C)C(=O)CN(C)C(=O)CN(C)C(=O)[C@H]([C@@H](C)CC)NC(=O)[C@H](CC(C)C)N(C)C(=O)C[C@@H](C)N(C)C(=O)[C@H](CC(C)C)NC(=O)C(C)(C)N(C)C1=O [Compound 12] (cyclo(I[Sar][Sar][NMePhe(4-Cl)][Sar][hPhe(4-CF3)]K(Alloc)[NMeAib]L[NMedβ3hAla][NMeL])) | 240 | > 500
2 | CC[C@H](C)[C@@H]1NC(=O)[C@H](C)N(C)C(=O)C[C@@H](C(=O)N2CCCCC2)N(C)C(=O)[C@H](C(C)C)N(C)C(=O)C2(CCCC2)NC(=O)[C@@H]2CCCN2C(=O)[C@H](CCc2ccc(C(F)(F)F)c(Cl)c2)NC(=O)CN(C)C(=O)[C@H](CC2CCCCC2)N(C)C(=O)[C@@H]2CCN2C(=O)[C@H](CCc2ccccc2)N(C)C1=O [Compound 1559] ([NMeA]I[NMehPhe][Aze][NMeCha][Sar][hPhe(3-Cl-4-CF3)]P[Ac5c][NMeV][NMeD]-Piperidide; lactam N-11) | 28 | > 500
3 | CCO[C@@H]1C[C@H]2C(=O)NC3(CCCC3)C(=O)N(C)[C@@H](C3CCCC3)C(=O)N(C)[C@H](C)CC(=O)N(C)[C@@H](CC(C)C)C(=O)N[C@@H]([C@@H](C)CC)C(=O)N(C)[C@@H](C)C(=O)N3CC[C@H]3C(=O)N(CC)[C@@H](Cc3ccc(C)cc3)C(=O)N(C)CC(=O)N[C@@H](CCc3cc(F)c(C(F)(F)F)c(F)c3)C(=O)N2C1 [Compound 432] (cyclo([Ac5c][NMeGly(cPent)][NMedβ3hAla][NMeL]I[NMeA][Aze][NEtPhe(4-Me)][Sar][hPhe(3,5-F2-4-CF3)][Hyp](Et))) | 4.5 | ≤ 20
4 | CC[C@H](C)[C@@H]1NC(=O)[C@H](CC(C)C)N(C)C(=O)C[C@H]2CCCCN2C(=O)[C@H](CC(C)C)NC(=O)C(C)(C)N(C)C(=O)[C@H](CC(C)C)NC(=O)[C@H](CCc2ccc(C(F)(F)F)c(F)c2)NC(=O)CN(C)C(=O)[C@H](CC2CCCCC2)N(C)C(=O)CN(C)C(=O)CN(C)C1=O [Compound 1095] (cyclo(I[Sar][Sar][NMeCha][Sar][hPhe(3-F,4-CF3)]L[NMeAib]L[dβ3hPip][NMeL])) | 46 | > 500
5 | CCO[C@@H]1C[C@H]2C(=O)NC3(CCCC3)C(=O)N(C)[C@@H]([C@@H](C)CC)C(=O)N(C)[C@H](C(=O)N3CCCC3)CC(=O)N(C)[C@@H](CC(C)C)C(=O)N[C@@H]([C@@H](C)CC)C(=O)N(C)[C@@H](C)C(=O)N3CC[C@H]3C(=O)N(C)[C@@H](Cc3ccc(C(F)(F)F)cc3)C(=O)N(C)CC(=O)N[C@@H](CCc3ccc(C(F)(F)F)c(Cl)c3)C(=O)N2C1 [Compound 1335] ([NMeL]I[NMeA][Aze][NMePhe(4-CF3)][Sar][hPhe(3-Cl-4-CF3)][Hyp](Et)[Ac5c][NMeI][NMeD]-Pyrrolidide; lactam N-11) | 0.49 | ≤ 20
6 | CC[C@H](C)[C@@H]1NC(=O)[C@H](CC2CCCC2)N(C)C(=O)C[C@@H](C(=O)N(C)C)N(C)C(=O)[C@H]([C@@H](C)CC)N(C)C(=O)C2(CCCC2)NC(=O)[C@@H]2CCCN2C(=O)[C@H](CCc2ccc(C(F)(F)F)c(Cl)c2)NC(=O)CN(C)C(=O)[C@H](Cc2ccc(C)cc2)N(C)C(=O)[C@@H]2CCN2C(=O)[C@H](C)N(C)C1=O [Compound 400] ([NMeAla(cPent)]I[NMeA][Aze][NMePhe(4-Me)][Sar][hPhe(3-Cl-4-CF3)]P[Ac5c][NMeI][NMeD]-NMe2; lactam N-11) | 0.85 | ≤ 20
7 | CC[C@H](C)[C@@H]1NC(=O)[C@H](C(C)C)N(C)C(=O)C[C@@H](C)NC(=O)[C@H](CC(C)C)N(C)C(=O)C2(CCCC2)NC(=O)[C@H](CC(C)C)N(C)C(=O)[C@H](CCc2ccc(C(F)(F)F)c(Cl)c2)NC(=O)CN(C)C(=O)[C@H](CC2CCCCC2)N(C)C(=O)CN(C)C(=O)CN(C)C1=O [Compound 892] (cyclo([Ac5c][NMeL][d(β3hA)][NMeV]I[Sar][Sar][NMeCha][Sar][hPhe(3-Cl-4-CF3)][NMeL])) | 68 | > 500
8 | CC[C@H](C)[C@@H]1NC(=O)[C@H](C)N(C)C(=O)C[C@@H](C(=O)N2CCCCC2)N(C)C(=O)[C@H](C(C)C)N(C)C(=O)C2(CCCC2)NC(=O)CN(Cc2ccccc2)C(=O)[C@H](CCc2ccc(C(F)(F)F)c(Cl)c2)NC(=O)CN(C)C(=O)[C@H](CC2CCCCC2)N(C)C(=O)CN(C)C(=O)CN(C)C1=O [Compound 1676] ([NMeA]I[Sar][Sar][NMeCha][Sar][hPhe(3-Cl-4-CF3)][Nphe][Ac5c][NMeV][NMeD]-Piperidide; lactam N-11) | 1.6 | > 500
9 | CC[C@H](C)[C@@H]1NC(=O)[C@H](CCC(C)C)N(C)C(=O)C[C@@H](C(=O)N(C)C)N(C)C(=O)[C@H]([C@@H](C)CC)N(C)C(=O)C2(CCCC2)NC(=O)[C@@H]2CCCN2C(=O)[C@H](CCc2ccc(C(F)(F)F)c(Cl)c2)NC(=O)CN(C)C(=O)[C@H](Cc2ccc(C)cc2)N(C)C(=O)[C@@H]2CCN2C(=O)[C@H](C)N(C)C1=O [Compound 1042] ([NMehLeu]I[NMeA][Aze][NMePhe(4-Me)][Sar][hPhe(3-Cl-4-CF3)]P[Ac5c][NMeI][NMeD]-NMe2; lactam N-11) | 0.72 | ≤ 20
10 | CC[C@H](C)[C@@H]1NC(=O)[C@H](CCS(C)(=O)=O)N(C)C(=O)C[C@@H](C(=O)N2CCCCC2)N(C)C(=O)[C@H](C(C)C)N(C)C(=O)C2(CCCC2)NC(=O)[C@@H]2CCCN2C(=O)[C@H](CCc2ccc(C(F)(F)F)c(Cl)c2)NC(=O)CN(C)C(=O)[C@H](CC2CCCCC2)N(C)C(=O)[C@@H]2CCN2C(=O)[C@H](C)N(C)C1=O [Compound 419] ([NMeMet(O2)]I[NMeA][Aze][NMeCha][Sar][hPhe(3-Cl-4-CF3)]P[Ac5c][NMeV][NMeD]-Piperidide; lactam N-11) | 2.4 | > 500
11 | CC[C@H](C)[C@@H]1NC(=O)[C@H](CC(C)C)N(C)C(=O)C[C@@H](C(=O)N2CCC2)N(C)C(=O)[C@H](C2CCCC2)N(C)C(=O)C2(CCCC2)NC(=O)[C@@H]2CC(F)(F)CN2C(=O)[C@H](CCc2cc(F)c(C(F)(F)F)c(F)c2)NC(=O)CN(C)C(=O)[C@H](CC2CCCCC2)N(C)C(=O)[C@@H]2CCN2C(=O)[C@H](C)N(C)C1=O [Compound 1248] ([NMeL]I[NMeA][Aze][NMeCha][Sar][hPhe(3,5-F2-4-CF3)][Pro(4,4-F2)][Ac5c][NMeGly(cPent)][NMeD]-{Azetidin(1-yl)}; lactam N-11) | 0.67 | ≤ 20
12 | CC[C@H](C)[C@@H]1NC(=O)[C@H](C)N(C)C(=O)C[C@@H](C(=O)N2CCCCC2)N(C)C(=O)[C@H](C(C)C)N(C)C(=O)C2(CCCC2)NC(=O)[C@@H]2CCCN2C(=O)[C@H](CCc2ccc(C(F)(F)F)c(Cl)c2)NC(=O)CN(C)C(=O)[C@H](CC2CCCCC2)N(C)C(=O)[C@@H]2CCN2C(=O)[C@H](CC2CCCC2)N(C)C1=O [Compound 1566] ([NMeA]I[NMeAla(cPent)][Aze][NMeCha][Sar][hPhe(3-Cl-4-CF3)]P[Ac5c][NMeV][NMeD]-Piperidide; lactam N-11) | 20 | > 500
13 | CC[C@H](C)[C@@H]1NC(=O)[C@H](CC(C)C)N(C)C(=O)C[C@@H](C(=O)N2CCCC2)N(C)C(=O)[C@H]([C@@H](C)CC)N(C)C(=O)C2(CCCC2)NC(=O)[C@@H]2CCCN2C(=O)[C@H](CCc2cc(F)c(C(F)(F)F)c(F)c2)NC(=O)CN(C)C(=O)[C@H](Cc2ccc(C(F)(F)F)cc2)N(CC)C(=O)[C@@H]2CCN2C(=O)[C@H](C)N(C)C1=O [Compound 1175] ([NMeL]I[NMeA][Aze][NEtPhe(4-CF3)][Sar][hPhe(3,5-F2-4-CF3)]P[Ac5c][NMeI][NMeD]-Pyrrolidide; lactam N-11) | 0.79 | ≤ 20
14 | CC[C@H](C)[C@@H]1NC(=O)[C@H](CC(C)C)N(C)C(=O)C[C@@H](C(=O)N2CCCCC2)N(C)C(=O)[C@H](C2CCCCC2)N(C)C(=O)C2(CCCC2)NC(=O)[C@H](Cc2cncc(C)c2)N(C)C(=O)[C@H](CCc2ccc(C(F)(F)F)c(Cl)c2)NC(=O)CN(C)C(=O)[C@H](CC2CCCCC2)N(C)C(=O)CN(C)C(=O)CN(C)C1=O [Compound 1087] ([NMeL]I[Sar][Sar][NMeCha][Sar][hPhe(3-Cl-4-CF3)][X20][Ac5c][NMeChg][NMeD]-Piperidide; lactam N-11) | 15 | > 500
15 | CC[C@H](C)[C@@H]1NC(=O)[C@H](CC(C)C)N(C)C(=O)C[C@@H](C(=O)N(C)C)N(C)C(=O)[C@H](C2CCCC2)N(C)C(=O)C2(CCCC2)NC(=O)[C@@H]2CCCN2C(=O)[C@H](CCc2ccc(C(F)(F)F)c(Cl)c2)NC(=O)CN(C)C(=O)[C@H](CC2CCCCC2)N(C)C(=O)[C@@H]2CCN2C(=O)[C@H](C)N(C)C1=O [Compound 1777] ([NMeL]I[NMeA][Aze][NMeCha][Sar][hPhe(3-Cl-4-CF3)]P[Ac5c][NMeGly(cPent)][NMeD]-NMe2; lactam N-11) | 0.63 | ≤ 20
16 | CCCC[C@@H]1NC(=O)C(C)(C)N(C)C(=O)[C@H](CC(C)C)NC(=O)[C@H](CCc2ccc(C(F)(F)F)c(F)c2)NC(=O)CN(C)C(=O)[C@H](Cc2ccc(Cl)cc2)N(C)C(=O)CN(C)C(=O)CN(C)C(=O)[C@H]([C@@H](C)CC)NC(=O)[C@H](CC(C)C)N(C)C(=O)C[C@@H](C)N(C)C1=O [Compound 83] (cyclo(I[Sar][Sar][NMePhe(4-Cl)][Sar][hPhe(3-F,4-CF3)]L[NMeAib][Nle][NMedβ3hAla][NMeL])) | 110 | > 500
